According to patent publication US20260070922A1, “PYRAZOLE AND IMIDAZOLE DERIVATIVES AS DUAL OREXIN AND KAPPA-OPIOID RECEPTORS MODULATORS COMPOSITION, METHODS FOR TREATING NEUROLOGICAL AND PSYCHIATRIC DISORDERS” (HAGER BIOSCIENCES, LLC, priority 2022, published 2026):

Legend:
[1] = target: T1, human k-opioid receptor (kOR) (Homo sapiens, UniProt P41145); assay: Human k-opioid (KOP) receptor (agonist radioligand [3H]U-69593) binding assay, transfected RBL cell membranes; details: read-out: KOR % Inh. @ 1 uM
T1 construct: expressed in transfected cells; host or cells: RBL cells (membrane homogenates)
T1 sequence (P41145 whole entry): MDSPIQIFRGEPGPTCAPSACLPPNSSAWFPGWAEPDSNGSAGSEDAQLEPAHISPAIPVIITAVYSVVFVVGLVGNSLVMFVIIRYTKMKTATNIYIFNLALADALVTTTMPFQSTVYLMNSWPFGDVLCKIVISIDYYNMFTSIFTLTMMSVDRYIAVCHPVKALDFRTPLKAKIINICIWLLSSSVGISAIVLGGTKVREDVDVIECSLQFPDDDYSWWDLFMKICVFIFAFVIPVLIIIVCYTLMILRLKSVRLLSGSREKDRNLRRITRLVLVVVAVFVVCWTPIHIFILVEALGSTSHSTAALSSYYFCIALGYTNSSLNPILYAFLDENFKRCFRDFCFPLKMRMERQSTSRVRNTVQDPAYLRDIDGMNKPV
Protocol: Human k-Opioid (KOP) Receptor (Agonist Radioligand) Binding Assay
Purpose: Evaluation of the affinity of compounds for the human k-opioid receptor in transfected RBL cells determined in a radioligand binding assay.
Experimental protocol: Cell membrane homogenates (about 80 μg protein) are incubated for 60 min at 22° C. with 0.5 nM [3H]U-69593 in the absence or presence of the test compound in a buffer containing 50 mM Tris-HCl (pH 7.4), 10 mM MgCl2 and 1 mM EDTA. Nonspecific binding is determined in the presence of 10 μM naloxone. Following incubation, the samples are filtered rapidly under vacuum through glass fiber filters ([…], Packard) presoaked with 0.3% PEI and rinsed several times with ice-cold 50 mM Tris-HCl using a 96-sample cell harvester (Unifilter, Packard). The filters are dried then counted for radioactivity in a scintillation counter (Topcount, Packard) using a scintillation cocktail (Microscint 0, Packard). The results are expressed as a percent inhibition of the control radioligand specific binding. The standard reference compound is U-50488, which is tested in each experiment at several concentrations to obtain a competition curve from which its IC50 is calculated.

[2] = target: T2, human orexin-2 receptor (OX2R) (Homo sapiens, UniProt O43614); assay: In vitro orexin antagonism assay: intracellular calcium measurement (FLIPR), orexin-A 3 nM as agonist; assay type: cell-based; details: for IC50: first value of IC50/Kb cell; for inhibition at 1 µM: read-out: OX2R, % Inh. @ 1 uM; for Kb: second value of IC50/Kb cell
T2 construct: expressed in transfected cells; host or cells: CHO cells (G418 selection)
T2 sequence (O43614 1-444): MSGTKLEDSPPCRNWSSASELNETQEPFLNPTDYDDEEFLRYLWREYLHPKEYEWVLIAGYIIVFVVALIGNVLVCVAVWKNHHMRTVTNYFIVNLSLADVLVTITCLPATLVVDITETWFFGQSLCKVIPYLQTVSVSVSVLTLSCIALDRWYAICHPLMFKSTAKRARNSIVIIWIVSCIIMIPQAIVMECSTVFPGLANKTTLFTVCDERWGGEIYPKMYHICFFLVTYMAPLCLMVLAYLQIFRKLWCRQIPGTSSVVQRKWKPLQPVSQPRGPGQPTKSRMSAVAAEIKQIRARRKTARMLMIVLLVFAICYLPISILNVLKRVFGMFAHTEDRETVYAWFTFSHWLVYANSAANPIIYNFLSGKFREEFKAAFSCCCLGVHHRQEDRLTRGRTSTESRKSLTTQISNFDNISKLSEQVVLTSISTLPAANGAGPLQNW
In short: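 Fluorescence peak on 3 nM orexin-A challenge, read by FLIPR and compared with vehicle, yields IC50 (geometric mean when repeated; may be normalized to an on-plate reference). Antagonists were added 120 min beforehand to fluo-4-loaded recombinant CHO cells expressing human OX1R or OX2R.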

[3] = target: T3, Orexin type 1 (OX1R) receptor (Homo sapiens, UniProt O43613); assay: as above; assay type: cell-based; details: for IC50: first value of IC50/Kb cell; for inhibition at 1 µM: read-out: OX1R, % Inh. @ 1 uM; for Kb: second value of IC50/Kb cell
T3 construct: expressed in transfected cells; host or cells: CHO cells (G418 selection)
T3 sequence (O43613 1-425): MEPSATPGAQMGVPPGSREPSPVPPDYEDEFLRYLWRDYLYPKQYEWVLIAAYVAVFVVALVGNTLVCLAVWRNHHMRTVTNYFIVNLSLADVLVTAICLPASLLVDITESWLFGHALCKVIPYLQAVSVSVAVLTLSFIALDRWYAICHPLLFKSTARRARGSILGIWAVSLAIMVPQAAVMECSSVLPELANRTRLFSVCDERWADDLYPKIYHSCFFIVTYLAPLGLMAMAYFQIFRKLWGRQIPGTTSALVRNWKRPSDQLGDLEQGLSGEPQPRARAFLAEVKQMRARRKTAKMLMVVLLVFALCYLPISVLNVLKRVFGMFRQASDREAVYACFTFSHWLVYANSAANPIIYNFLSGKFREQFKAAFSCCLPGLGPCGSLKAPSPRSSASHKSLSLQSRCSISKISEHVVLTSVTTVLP
In short: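 CHO cells expressing the human orexin receptor were loaded with 3 μM fluo-4 AM plus 5 mM probenecid, then exposed to antagonist for 120 min before 3 nM orexin-A (final) was added on a FLIPR.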

| SMILES | inhibition at 1 µM [1] [%] | IC50 [2] [nM] | inhibition at 1 µM [2] [%] | Kb [2] [nM] | IC50 [3] [nM] | inhibition at 1 µM [3] [%] | Kb [3] [nM] |
| --- | --- | --- | --- | --- | --- | --- | --- |
| O=C(c1nn2ccccc2c1-c1ccccc1)N1CCC[C@H]1Cc1nc(-c2ccc(F)cn2)no1 [Example 117] | 19 | 150 | 69 | 26 | 2 | 100 | 0.3 |
| O=C(c1nc2ccccn2c1-c1ccccc1)N1CCC[C@H]1Cn1cc(-c2ccccn2)cn1 [Example 118] | 35 | – | 45 | – | 5 | 100 | 1 |
| O=C(c1nc2ccccn2c1-c1ccccc1)N1CCC[C@H]1Cn1ccc(-c2ccccn2)n1 [Example 119] | 6 | – | 37 | – | 5 | 100 | 1 |
| O=C(c1c(-c2ccccc2)nn2ccccc12)N1CCC[C@H]1Cc1nc(-c2ccc(F)cn2)no1 [Example 120] | 22 | 300 | 63 | 52 | 46 | 80 | 10 |
| O=C(c1nc2ccccn2c1-c1ccccc1)N1CCC[C@H]1Cn1cc(-c2ccc(F)cn2)cn1 [Example 122] | 15 | – | 51 | – | 10 | 99 | 2 |
| O=C(c1nc2ccccn2c1-c1ccccc1)N1[C@@H]2CC[C@@H](C2)[C@H]1COc1ccc(C(F)(F)F)cn1 [Example 125] | 7 | 20 | 57 | 3 | 190 | 93 | 41 |
| O=C(c1nc2ccccn2c1-c1ccccc1)N1[C@H](Cn2ccc(-c3ccc(F)cn3)n2)C[C@@H]2C[C@@H]21 [Example 126] | 10 | – | 24 | – | 17 | 99 | 4 |
| O=C(c1nc2ccccn2c1-c1ccccc1)N1CCC[C@H]1Cc1nc(-c2ccc(F)cn2)no1 [Example 127] | 17 | – | 31 | – | 5 | 100 | 1 |
| O=C(c1nc2ccccn2c1-c1ccccc1)N1CCC[C@H]1Cc1nc(-c2ccccn2)no1 [Example 128] | 19 | – | 17 | – | 7 | 100 | 1 |
| O=C(c1nn2c(c1-c1ccccc1)COCC2)N1CCC[C@H]1Cn1ccc(-c2ccccc2)n1 [Example 129] | 7 | 240 | 88 | 41 | 6 | 100 | 1 |
| O=C(c1nn2c(c1-c1ccccc1)OCCC2)N1CCC[C@H]1Cn1ccc(-c2ccccc2)n1 [Example 130] | 53 | 110 | 98 | 19 | 9 | 100 | 2 |
| O=C(c1c(-c2ncccn2)nn2ccccc12)N1CCC[C@H]1Cn1ccc(-c2ccccc2)n1 [Example 131] | 27 | 68 | 91 | 12 | 4 | 100 | 1 |
| O=C(c1c(-c2ccccn2)nn2ccccc12)N1CCC[C@H]1Cn1ccc(-c2ccccc2)n1 [Example 132] | 35 | 16 | 98 | 3 | 4 | 100 | 1 |
